Assay results from patent US20120172386A1, “Combinations Comprising a VEGF Receptor Inhibitor” (NOVARTIS AG, priority 2005, published 2012).

Tests used:
[1] = Percutaneous penetration/permeation in static Franz-type diffusion cells with split-thickness human cadaver skin; type: in vitro ADME; details: solution b (1% in propylene glycol/oleyl alcohol 9:1); for Skin concentration: 48 hours, stratum corneum removed
Procedure: Frozen human dorsal cadaver skin (Caucasian; back skin) was obtained from the National Disease Research Interchange, Philadelphia, USA. Skin from three different donors was used;
Thawed skin samples were dermatomed to 0.7 mm with an Aesculap dermatome to obtain “split-thickness” skin.
Percutaneous penetration was studied in vitro by means of static Franz-type diffusion cells with phosphate buffered saline/fetal calf serum 2:1 as receptor fluid at 32° in triplicates for 48 hours. The compounds were applied as 1% solutions (300 μl each) in propylene glycol (solution a) or in propylene glycol/oleyl alcohol 9:1 (solution b). Samples of 100 μl were taken 5 to 7 times and replaced by fresh receptor fluid as described previously (Schmook, et al., Skin Pharmacol. 1993, 6:116-124).
Drug analysis was performed with specimens of the exposed skin (at the end of the 48 hours experiment), from which the stratum corneum had been removed by 20 strippings with an adhesive tape. The weighed skin samples were homogenized in 0.2 M ammonium phosphate buffer (pH 7.0). The homogenates were extracted with ethyl acetate and processed as described (Schmook, et al 1993).

VEGF-R2 (KDR) = VEGF-R2 (KDR) (Homo sapiens, UniProt P35968); assay: Inhibition of the tyrosine kinase activity of VEGF-R2 (KDR); type: biochemical
Procedure: Inhibition of the Tyrosine Kinase Activity of VEGF-R2 (KDR)
The inhibition test is carried out as described above.

Sequence of VEGF-R2 (KDR) (P35968 20-1356, species assumed): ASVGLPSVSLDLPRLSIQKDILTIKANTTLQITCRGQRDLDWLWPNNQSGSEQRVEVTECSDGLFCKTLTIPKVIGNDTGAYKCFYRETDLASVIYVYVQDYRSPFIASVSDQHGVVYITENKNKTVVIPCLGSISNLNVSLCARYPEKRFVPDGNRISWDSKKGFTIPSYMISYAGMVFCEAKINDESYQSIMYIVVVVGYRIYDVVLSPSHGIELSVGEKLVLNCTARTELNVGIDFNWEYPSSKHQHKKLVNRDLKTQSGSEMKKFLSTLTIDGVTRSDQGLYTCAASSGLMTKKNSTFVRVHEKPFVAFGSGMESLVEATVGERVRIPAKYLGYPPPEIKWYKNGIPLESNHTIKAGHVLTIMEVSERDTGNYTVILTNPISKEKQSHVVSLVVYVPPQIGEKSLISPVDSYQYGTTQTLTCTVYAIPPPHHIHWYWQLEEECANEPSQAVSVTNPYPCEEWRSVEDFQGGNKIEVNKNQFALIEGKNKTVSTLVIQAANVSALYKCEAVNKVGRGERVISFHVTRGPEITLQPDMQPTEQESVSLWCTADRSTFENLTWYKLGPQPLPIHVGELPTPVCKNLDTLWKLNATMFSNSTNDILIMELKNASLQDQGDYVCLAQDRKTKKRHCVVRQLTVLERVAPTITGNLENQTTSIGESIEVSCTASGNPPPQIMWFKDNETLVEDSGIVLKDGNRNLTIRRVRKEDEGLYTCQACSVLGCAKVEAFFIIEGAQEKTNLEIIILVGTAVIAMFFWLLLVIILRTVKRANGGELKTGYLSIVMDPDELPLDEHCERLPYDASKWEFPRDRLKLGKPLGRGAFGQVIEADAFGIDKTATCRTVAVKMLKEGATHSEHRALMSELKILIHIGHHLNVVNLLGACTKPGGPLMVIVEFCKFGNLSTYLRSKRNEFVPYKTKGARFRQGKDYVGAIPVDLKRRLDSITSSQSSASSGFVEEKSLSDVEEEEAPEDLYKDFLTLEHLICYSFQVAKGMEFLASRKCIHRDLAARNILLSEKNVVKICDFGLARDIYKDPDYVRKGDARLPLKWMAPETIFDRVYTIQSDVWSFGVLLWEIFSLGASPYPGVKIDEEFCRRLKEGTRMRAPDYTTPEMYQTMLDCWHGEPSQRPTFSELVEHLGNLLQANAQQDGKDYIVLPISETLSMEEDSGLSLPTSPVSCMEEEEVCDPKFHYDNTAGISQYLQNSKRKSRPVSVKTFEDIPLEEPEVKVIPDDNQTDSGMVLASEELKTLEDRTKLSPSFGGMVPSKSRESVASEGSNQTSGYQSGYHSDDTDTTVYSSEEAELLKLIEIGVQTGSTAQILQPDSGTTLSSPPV

| Compound | melting point [°C] | also measured |
| --- | --- | --- |
| Nc1nccc(Oc2ccc3c(C(=O)Nc4ccc(F)c(C(F)(F)F)c4)cccc3c2)n1 |  | Permeation rate ([1]; batch of skin 3): 19 ± 3 ng/mL/h; Skin concentration ([1]; batch of skin 3): 46 ± 13 µg/g |
| CCN1CCN(Cc2ccc(-c3cc4c(N[C@H](C)c5ccccc5)ncnc4[nH]3)cc2)CC1 |  | Permeation rate ([1]; batch of skin 1): 182 ± 68 ng/mL/h; Skin concentration ([1]; batch of skin 1): 35 ± 12 µg/g; Permeation rate ([1]; batch of skin 2): 189 ± 43 ng/mL/h; Skin concentration ([1]; batch of skin 2): 72 ± 24 µg/g |
| Clc1ccc(Nc2nnc(Cc3ccncc3)c3ccccc23)cc1 |  | Permeation rate ([1]; batch of skin 1): 286 ± 90 ng/mL/h; Skin concentration ([1]; batch of skin 1): 10.4 ± 2.0 µg/g |
| Nc1nccc(Oc2ccc3c(c2)OCCN3C(=O)Nc2ccc(C(F)(F)F)c(C(F)(F)F)c2)n1 [12a)] |  | IC50 (VEGF-R2 (KDR)): 52 nM |
| Nc1nccc(Oc2ccc3c(c2)OCCN3C(=O)Nc2ccc(Cl)c(C(F)(F)F)c2)n1 [12b)] |  | IC50 (VEGF-R2 (KDR)): 10 nM |
| Nc1nccc(Oc2ccc3c(c2)OCCN3C(=O)Nc2ccc(F)c(C(F)(F)F)c2)n1 [12d)] |  | IC50 (VEGF-R2 (KDR)): 73 nM |
| CNc1cc(Oc2ccc3c(C(=O)Nc4ccc(N5CCOCC5)c(C(F)(F)F)c4)cccc3c2)ncn1 [Example 40, 6-(6-Methylamino-pyrimidin-4-yloxy)-naphthalene-1-carboxylic acid (4-morpholin-4-yl-3-trifluoromethyl-phenyl)-amide] | 156 to 157 |  |
| N#Cc1cc(Oc2ccc3c(C(=O)Nc4cccc(C(F)(F)F)c4)cccc3c2)ncn1 [Example 43, 6-(6-Cyano-pyrimidin-4-yloxy)-naphthalene-1-carboxylic acid (3-trifluoromethyl-phenyl)-amide] | 167 |  |
| CC(C)NC(=O)c1cc(Oc2ccc3c(C(=O)Nc4cccc(C(F)(F)F)c4)cccc3c2)ncn1 [Example 51, 6-[5-(3-Trifluoromethyl-phenylcarbamoyl)-naphthalen-2-yloxy]-pyrimidine-4-carboxylic acid isopropylamide] | 205 to 208 |  |
| O=C(Nc1cccc(C(F)(F)F)c1)c1cccc2cc(Oc3cc(CCl)ncn3)ccc12 [Example 53, 6-(6-Chloromethyl-pyrimidin-4-yloxy)-naphthalene-1-carboxylic acid (3-trifluoromethyl-phenyl)-amide] | 178 to 181 |  |
| CNCc1cc(Oc2ccc3c(C(=O)Nc4cccc(C(F)(F)F)c4)cccc3c2)ncn1 [Example 54, 6-(6-Methylaminomethyl-pyrimidin-4-yloxy)-naphthalene-1-carboxylic acid (3-trifluoromethyl-phenyl)-amide] | 141 to 143 |  |
| CN(C)Cc1cc(Oc2ccc3c(C(=O)Nc4cccc(C(F)(F)F)c4)cccc3c2)ncn1 [Example 55, 6-(6-Dimethylaminomethyl-pyrimidin-4-yloxy)-naphthalene-1-carboxylic acid (3-trifluoromethyl-phenyl)-amide] | 180 to 181 |  |
| Nc1cc(Sc2ccc3c(C(=O)Nc4cccc(C(F)(F)F)c4)cccc3c2)ncn1 [Example 58, 6-(6-Amino-pyrimidin-4-ylsulfanyl)-naphthalene-1-carboxylic acid (3-trifluoromethyl-phenyl)-amide] | 205 |  |
| Nc1cc(Sc2ccc3c(C(=O)Nc4cccc(OC(F)(F)F)c4)cccc3c2)ncn1 [Example 61, 6-(6-Amino-pyrimidin-4-ylsulfanyl)-naphthalene-1-carboxylic acid (3-trifluoromethoxy-phenyl)-amide] | 197 to 199 |  |
| CCCCOC(=O)c1cc(Oc2ccc3c(C(=O)Nc4cccc(C(F)(F)F)c4)cccc3c2)ccn1 [Example 64, 4-[5-(3-Trifluoromethyl-phenylcarbamoyl)-naphthalen-2-yloxy]-pyridine-2-carboxylic acid butyl ester] | 128 to 130 |  |
| CNC(=O)c1cc(Oc2ccc3c(C(=O)Nc4cccc(C(F)(F)F)c4)cccc3c2)ccn1 [Example 65, 4-[5-(3-Trifluoromethyl-phenylcarbamoyl)-naphthalen-2-yloxy]-pyridine-2-carboxylic acid methylamide] | 175 to 177 |  |
| CN(C)CCNC(=O)c1cc(Oc2ccc3c(C(=O)Nc4cccc(C(F)(F)F)c4)cccc3c2)ccn1 [Example 67, 4-[5-(3-Trifluoromethyl-phenylcarbamoyl)-naphthalen-2-yloxy]-pyridine-2-carboxylic acid (2-dimethylamino-ethyl)-amide] | 80 to 82 |  |
| COC(=O)Nc1cc(Oc2ccc3c(C(=O)Nc4cccc(C(F)(F)F)c4)cccc3c2)ccn1 [Example 69, {4-[5-(3-Trifluoromethyl-phenylcarbamoyl)-naphthalen-2-yloxy]-pyridin-2-yl}-carbamic acid methyl ester] | 230 to 232 |  |
| Nc1cc(C#Cc2ccc3c(C(=O)Nc4cccc(C(F)(F)F)c4)cccc3c2)ncn1 [Example 71, 6-(6-Amino-pyrimidin-4-ylethynyl)-naphthalene-1-carboxylic acid (3-trifluoromethyl-phenyl)-amide] | 217 to 220 |  |
| CC(C)c1ccc(-n2nc(C(C)(C)C)cc2NC(=O)c2cncc3cc(Oc4cc(N)ncn4)ccc23)cc1 [Example 93, 7-(6-Amino-pyrimidin-4-yloxy)-isoquinoline-4-carboxylic acid [5-tert-butyl-2-(4-isopropyl-phenyl)-2H-pyrazol-3-yl]-amide] | 131 to 133 |  |
| CC(C)(C)c1cc(NC(=O)c2cncc3cc(Oc4cc(N)ncn4)ccc23)n(-c2ccc(F)cc2)n1 [Example 94, 7-(6-Amino-pyrimidin-4-yloxy)-isoquinoline-4-carboxylic acid [5-tert-butyl-2-(4-fluoro-phenyl)-2H-pyrazol-3-yl]-amide] | 124 to 126 |  |
| CNc1cc(Oc2ccc3c(C(=O)Nc4cccc(C(F)(F)F)c4)cncc3c2)ncn1 [Example 96, 7-(6-Methylamino-pyrimidin-4-yloxy)-isoquinoline-4-carboxylic acid (3-trifluoromethyl-phenyl)-amide] | 205 to 208 |  |
| Nc1nccc(Oc2ccc3c(C(=O)Nc4cccc(C(F)(F)F)c4)cccc3c2)n1 [drawing 76] |  | Permeation rate ([1]; batch of skin 2): 13 ± 3 ng/mL/h; Skin concentration ([1]; batch of skin 2): 44 ± 17 µg/g; Permeation rate ([1]; batch of skin 3): 8 ± 2 ng/mL/h; Skin concentration ([1]; batch of skin 3): 24 ± 6 µg/g |
| Nc1cc(Oc2ccc3c(C(=O)Nc4cccc(C(F)(F)F)c4)cccc3c2)ncn1 [drawing 77] |  | Permeation rate ([1]; batch of skin 3): 12 ± 4 ng/mL/h; Skin concentration ([1]; batch of skin 3): 34 ± 3 µg/g |
| Nc1cc(Oc2ccc3c(C(=O)Nc4ccc(F)c(C(F)(F)F)c4)cccc3c2)ncn1 [drawing 78] |  | Permeation rate ([1]; batch of skin 3): 22 ± 3 ng/mL/h; Skin concentration ([1]; batch of skin 3): 19 ± 7 µg/g |

Further lines, with some results ahead:

| melting point [°C] | Compound | also measured |
| --- | --- | --- |
| 224 to 225 | Nc1cc(Oc2ccc3c(C(=O)Nc4ccc(F)c(C(F)(F)F)c4)cccc3c2)ncn1 |  |
| 234 to 236 | Nc1nc(Cl)cc(Oc2ccc3c(C(=O)Nc4cccc(C(F)(F)F)c4)cccc3c2)n1 [Example 13, 6-(2-Amino-6-chloro-pyrimidin-4-yloxy)-naphthalene-1-carboxylic acid (3-trifluoromethyl-phenyl)-amide] |  |
| 199 to 200 | COC(=O)Nc1nccc(Oc2ccc3c(C(=O)Nc4cccc(C(F)(F)F)c4)cccc3c2)n1 [Example 19, 6-(2-Methoxycarbonylamino-pyrimidin-4-yloxy)-naphthalene-1-carboxylic acid (3-trifluoromethyl-phenyl)-amide] |  |
| 243 to 244 | Nc1cc(Oc2ccc3c(C(=O)Nc4cccc(C(F)(F)F)c4)cccc3c2)ncn1 [Example 26, 6-(6-Amino-pyrimidin-4-yloxy)-naphthalene-1-carboxylic acid (3-trifluoromethyl-phenyl)-amide] |  |
| 221 | Nc1cc(Sc2ccc3c(C(=O)Nc4ccc(F)c(C(F)(F)F)c4)cccc3c2)ncn1 [Example 57, 6-(6-Amino-pyrimidin-4-ylsulfanyl)-naphthalene-1-carboxylic acid (4-fluoro-3-trifluoromethyl-phenyl)-amide] |  |
| 117 to 120 | NC(=O)c1cc(Oc2ccc3c(C(=O)Nc4cccc(C(F)(F)F)c4)cccc3c2)ccn1 [Example 66, 4-[5-(3-Trifluoromethyl-phenylcarbamoyl)-naphthalen-2-yloxy]-pyridine-2-carboxylic acid amide] |  |
| 222 to 224 | Nc1cc(Oc2ccc3c(C(=O)Nc4cccc(C(F)(F)F)c4)cccc3c2)ccn1 [Example 68, 6-(2-Amino-pyridin-4-yloxy)-naphthalene-1-carboxylic acid (3-trifluoromethyl-phenyl)-amide] |  |
| 225 to 227 | Nc1nccc(CCc2ccc3c(C(=O)Nc4cccc(C(F)(F)F)c4)cccc3c2)n1 [Example 70, 6-[2-(2-Amino-pyrimidin-4-yl)-ethyl]-naphthalene-1-carboxylic acid (3-trifluoromethyl-phenyl)-amide] |  |
| 255 to 257 | CNc1cc(Oc2ccc3c(C(=O)Nc4ccc(F)c(C(F)(F)F)c4)cncc3c2)ncn1 [Example 95, 7-(6-Methylamino-pyrimidin-4-yloxy)-isoquinoline-4-carboxylic acid (4-fluoro-3-trifluoromethyl-phenyl)-amide] |  |
